Results on seven compounds are retold here after the supplement of paper PMC11061612.

Holding throughout (experiment): Bliss excess, mean over the matrix (fraction); higher = more synergy
One experiment relates to DK-MG (Glioblastoma). In short, it runs like this:
(§1)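 Bliss excess equals the observed combination effect minus the expected value EA + EB − EA·EB, where EA and EB are the effects of each agent alone. Combination Emax is the second-highest inhibition within the matrix. Inhibition was scaled from CellTiter-Glo 2.0 luminescence, with 0 set by vehicle wells and 1 by blank wells, after 72 hours of two-drug dosing of cells plated in 1536-well plates.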

Experiment [1] relates to SBC-5 (Small Cell Lung Carcinoma). The method in brief:
as §1

Experiment [2] concerns MDA-MB-175-VII (Breast Carcinoma). In short, it runs like this: as §1
Experiment [3] has as its system OCI-M1 (Acute Myeloid Leukemia). In short, it runs like this: as §1
In another experiment the test system is A375 (Melanoma). The method in brief: as §1
The subject of experiment [4] is IGROV-1 (Ovarian Carcinoma). In short, it runs like this:
as §1

Another experiment concerns HT-144 (Melanoma). In short, it runs like this:
as §1

Experiment [5] concerns KNS-62 (Squamous Cell Lung Carcinoma). The method in brief:
as §1

For another experiment, the system named is SK-N-DZ (Neuroblastoma). In short, it runs like this:
as §1

The subject of another experiment is MG-63 (Osteosarcoma). The method in brief: as §1
For experiment [6], the system named is COR-L105 (Lung Adenocarcinoma). In short, it runs like this: as §1
For experiment [7], the system named is BT-474 (Breast Carcinoma). The method in brief: as §1
For the next experiment, the system named is C32 (Melanoma). In short, it runs like this:
as §1

For experiment [8], the system named is CAL-85-1 (Breast Carcinoma). The method in brief:
as §1

Experiment [9] deals with RS4-11 (B-Lymphoblastic Leukemia). In short, it runs like this:
as §1

The test system of experiment [10] is TK (B-Cell Non-Hodgkin's Lymphoma). The method in brief: as §1
For experiment [11], the system named is NCI-H2023 (Non-Small Cell Lung Carcinoma). The method in brief:
as §1

Experiment [12] concerns NCI-H2170 (Squamous Cell Lung Carcinoma). In short, it runs like this: as §1
For experiment [13], the system named is L-363 (Plasma Cell Myeloma). The method in brief: as §1
A further experiment concerns NCI-H2452 (Mesothelioma). In short, it runs like this:
as §1

`CN(CCO)CC[C@H](CSc1ccccc1)Nc1ccc(S(=O)(=O)NC(=O)c2ccc(N3CCC([C@@H](O)c4ccccc4-c4ccc(Cl)cc4)CC3)cc2)cc1S(=O)(=O)C(F)(F)F` [AZD4320] + Cn1cnc2c(F)c(Nc3ccc(Br)cc3Cl)c(C(=O)NOCCO)cc21 [Selumetinib] (first compound max 1 µM, 7x7, partner max 3 µM): the Bliss excess was 0.0286 in the experiment on DK-MG (Glioblastoma); 0.0547 in experiment [1]; 0.0188 in experiment [2]; 0.0503 in [3]; -0.0112 in the experiment with A375 (Melanoma); 0.0542 in experiment [4]. The Bliss excess was 0.15 with HT-144 (Melanoma); 0.03 in [5]; -0.0273 with SK-N-DZ (Neuroblastoma); -0.0179 in the experiment on MG-63 (Osteosarcoma); 0.0181 in experiment [6]; -0.002 in experiment [7]. In addition, the Bliss excess is 0.0196 in the experiment with C32 (Melanoma); -0.0492 in experiment [8]; -0.0125 in [9]; -0.032 in [10]; 0.0178 in [11]; -0.0497 in experiment [12]. The Bliss excess in [13] is 0.0311; in the experiment on NCI-H2452 (Mesothelioma) it was -0.0688.

With `COc1nnc2ccc(N3CCC(c4ccc(OCCN5CCN(C)C(=O)[C@H]5C)cc4)CC3)nn12` [AZD5153] + C=CCn1c(=O)c2cnc(Nc3ccc(N4CCN(C)CC4)cc3)nc2n1-c1cccc(C(C)(C)O)n1 [AZD1775] (first compound max 1 µM, partner max 1 µM), the Bliss excess is -0.0209 in the experiment on DK-MG (Glioblastoma); -0.015 in experiment [1]; -0.0255 in experiment [2]; -0.0449 in [3]; -0.0212 in the experiment on A375 (Melanoma); -0.0858 in experiment [4]. Besides, the Bliss excess in the experiment on HT-144 (Melanoma) is 0.0394; in experiment [5], -0.0371; with SK-N-DZ (Neuroblastoma), -0.0084; with MG-63 (Osteosarcoma) it was -0.0419; in experiment [6], -0.0063; in [7], -0.0279. The Bliss excess with C32 (Melanoma) is -0.0426; in experiment [8] it was -0.0551; in experiment [9] it was 0.0184; in experiment [10], -0.0554; in [11] it was 0.0244; in experiment [12] it was 0.06. The Bliss excess in experiment [13] was -0.0546; in the experiment with NCI-H2452 (Mesothelioma) it was -0.0525.

For `COc1nnc2ccc(N3CCC(c4ccc(OCCN5CCN(C)C(=O)[C@H]5C)cc4)CC3)nn12` [AZD5153] + CC1(C)CCC(CN2CCN(c3ccc(C(=O)NS(=O)(=O)c4ccc(NCC5CCOCC5)c([N+](=O)[O-])c4)c(Oc4cnc5[nH]ccc5c4)c3)CC2)=C(c2ccc(Cl)cc2)C1 [Venetoclax] (first compound max 1 µM, 7x7, partner max 1 µM), the Bliss excess was -0.0766 with DK-MG (Glioblastoma); -0.0579 in [1]; 0.0346 in experiment [2]; -0.062 in [3]; -0.057 in the experiment on A375 (Melanoma); -0.0416 in experiment [4]. The Bliss excess with HT-144 (Melanoma) is -0.0488; in [5], -0.0381; with SK-N-DZ (Neuroblastoma) it was 0.0059; with MG-63 (Osteosarcoma) it was -0.0509; in [6], -0.0006; in [7] it was -0.078. Besides, the Bliss excess with C32 (Melanoma) is -0.0383; in experiment [8], -0.0582; in experiment [9], -0.0179; in experiment [10], 0.0193; in experiment [11] it was -0.0832; in experiment [12], -0.0329. The Bliss excess in experiment [13] is -0.101; with NCI-H2452 (Mesothelioma), 0.0059.

On to `COc1nnc2ccc(N3CCC(c4ccc(OCCN5CCN(C)C(=O)[C@H]5C)cc4)CC3)nn12` [AZD5153] + CCN(CCO)CCCOc1ccc2c(Nc3cc(CC(=O)Nc4cccc(F)c4)[nH]n3)ncnc2c1 [AZD2811] (first compound max 1 µM, 7x7, partner max 1 µM), for which the Bliss excess in the experiment with DK-MG (Glioblastoma) is -0.13; in experiment [1], -0.0286; in experiment [2], 0.0618; in experiment [3], 0.06; in the experiment on A375 (Melanoma), -0.0295; in experiment [4], -0.0574. The Bliss excess in the experiment on HT-144 (Melanoma) was 0.0216; in experiment [5] it was -0.0382; in the experiment on SK-N-DZ (Neuroblastoma), -0.0722; in the experiment with MG-63 (Osteosarcoma), -0.037; in experiment [6], -0.0092; in [7], -0.0197. In addition, the Bliss excess with C32 (Melanoma) was 0.0199; in experiment [8], -0.0411; in experiment [9], -0.0195; in [10], 0.0124; in experiment [11], -0.0248; in experiment [12], 0.0103. Also, the Bliss excess in experiment [13] was -0.0259; in the experiment on NCI-H2452 (Mesothelioma), -0.0574.

With `COc1nnc2ccc(N3CCC(c4ccc(OCCN5CCN(C)C(=O)[C@H]5C)cc4)CC3)nn12` [AZD5153] + C[C@@H]1COCCN1C2=NC(=NC(=C2)C3(CC3)[S@](=N)(=O)C)C4=C5C=CNC5=NC=C4 [AZD6738] (first compound max 1 µM, 7x7, partner max 10 µM), the Bliss excess was -0.0073 in the experiment on DK-MG (Glioblastoma); -0.0151 in experiment [1]; 0.0118 in [2]; -0.0165 in experiment [3]; 0.0552 in the experiment on A375 (Melanoma); 0.0079 in [4]. Moreover, the Bliss excess was 0.0637 with HT-144 (Melanoma); -0.018 in experiment [5]; 0.0472 in the experiment on SK-N-DZ (Neuroblastoma); 0.0223 with MG-63 (Osteosarcoma); -0.0092 in experiment [6]; 0.0788 in experiment [7]. Besides, the Bliss excess was 0.0069 with C32 (Melanoma); -0.006 in [8]; 0.0145 in experiment [9]; 0.0034 in [10]; 0.0692 in experiment [11]; 0.0964 in experiment [12]. Also, the figures for the Bliss excess (in [13]; in the experiment with NCI-H2452 (Mesothelioma)) were -0.0453 and 0.0045, respectively.

`COc1nnc2ccc(N3CCC(c4ccc(OCCN5CCN(C)C(=O)[C@H]5C)cc4)CC3)nn12` [AZD5153] + Cc1c2c(nn1C)CSCc1cc(n(C)n1)CSc1cc(c3ccccc3c1)OCCCc1c(C(=O)O)n(C)c3c-2c(Cl)ccc13 [AZD5991] (first compound max 1 µM, 7x7, partner max 1 µM): the Bliss excess with DK-MG (Glioblastoma) is -0.0037; in [1] it was -0.0062; in [2], -0.0015; in [3], -0.018; in the experiment on A375 (Melanoma), -0.0215; in experiment [4], -0.0069. In addition, the Bliss excess is -0.0094 in the experiment on HT-144 (Melanoma); -0.0459 in experiment [5]; -0.0117 in the experiment with SK-N-DZ (Neuroblastoma); -0.0302 in the experiment with MG-63 (Osteosarcoma); -0.0134 in experiment [6]; -0.0012 in experiment [7]. Moreover, the Bliss excess with C32 (Melanoma) is 0.142; in experiment [8] it was -0.0157; in [9] it was 0.0102; in [10] it was -0.0019; in experiment [11], -0.0217; in experiment [12] it was -0.0283. Also, the Bliss excess is -0.007 in experiment [13] and -0.0265 with NCI-H2452 (Mesothelioma).

With `COc1nnc2ccc(N3CCC(c4ccc(OCCN5CCN(C)C(=O)[C@H]5C)cc4)CC3)nn12` [AZD5153] + Cn1cnc2c(F)c(Nc3ccc(Br)cc3Cl)c(C(=O)NOCCO)cc21 [Selumetinib] (first compound max 1 µM, 7x7, partner max 10 µM), the Bliss excess is -0.032 in the experiment with DK-MG (Glioblastoma); 0.001 in experiment [1]; 0.019 in experiment [2]; 0.0301 in experiment [3]; 0.0241 in the experiment with A375 (Melanoma); -0.0391 in experiment [4]. The Bliss excess was 0.0212 with HT-144 (Melanoma); -0.0169 in [5]; 0.0017 with SK-N-DZ (Neuroblastoma); -0.0246 in the experiment with MG-63 (Osteosarcoma); 0.0622 in experiment [6]; -0.0245 in [7]. Further, the Bliss excess with C32 (Melanoma) is 0.0709; in experiment [8], -0.0298; in experiment [9] it was -0.0454; in [10], -0.0524; in experiment [11], -0.0158; in [12], -0.0712. The Bliss excess in experiment [13] was 0.0188; in the experiment on NCI-H2452 (Mesothelioma), -0.029.
